Laboratory results: paper PMC8950663, “Cyanobacteria Secondary Metabolites as Biotechnological Ingredients in Natural Anti-Aging Cosmetics: Potential to Overcome Hyperpigmentation, Loss of Skin Density and UV Radiation-Deleterious Effects” (Marine Drugs, 2022)

Biological target: T1, hyaluronidase (HAase)
T1 construct: gene SPAM1
Experiment: colorimetric DMAB end-point assay of hyaluronic acid degradation, […] nm
Assay type: biochemical
Settings: hyaluronic acid substrate (0.7 mg/mL stock), 37 °C, 30 min; positive control

IC50: 1105 µg/mL
Compound: O=C(O)c1cc(=O)c2c(OCC(O)COc3cccc4oc(C(=O)O)cc(=O)c34)cccc2o1 [di-sodium cromoglicate]
